US11690814B2, “Suplatast tosilate for use in the treatment of cough associated with interstitial lung disease” (Conrig Pharma ApS, priority 2016, dated 2023)
Entries after “also recorded” stand apart in the source; their conditions may differ. Where two headings read alike, the source gives them in different places.

Columns and labels:
[1] = system: naive guinea pigs (capsaicin inhalation-induced cough); test: 30 uM capsaicin cough challenge on naive animals; format: in vivo, guinea pig; conditions: for inhibition at 30 mg/kg: Cavia porcellus, ip; for mean cough, 10 min exposure: 30 mg/kg i.p. 30 min before 30 uM capsaicin, vehicle 9.3; for mean cough, 10 min exposure / mean cough, 5 min observation / mean cough, 10 + 5 min: n=16; for mean cough, 5 min observation: 5 min post-exposure period, vehicle 2.4; for mean cough, 10 + 5 min: vehicle 11.7; for antitussive effect (conclusion in words): capsaicin challenge
Method: (§1) The study was conducted as described in example 2, with the following exceptions. The bleomycin-induced cough modes is described J. A. Fernandez-Blanco et al: Clinical Science (2015) 129, 1001-1010).
(§2) The objective of the present study was to evaluate the potential anti-tussive effect of suplatast tosilate on capsaicin inhalation-induced cough on naïve and bleomycin-treated guinea pigs.
(§3) Male guinea pigs 300-350 g bodyweight (Harlan MD, distributed by INNOVO Ltd., Hungary) were used. The animals were housed in individually ventilated cabinets in a temperature-controlled and ventilated environment (21-23° C.) with a 12-hour light-dark cycle. Water and standard ascorbic acid containing guinea pig chow were provided ad libitum. The protocol has been approved by the Hungarian Food Chain Safety and Animal Health Directorate (PEI/001/3083-6/2014) and was carried out in accordance with European Directive 86/609/EEC.
(§4) Suplatast tosilate (racemate) and reference compound codeine were dissolved in saline ([…]) at 15 mg/mL concentration. Suplatast tosilate was administered intraperitoneally at 30 mg/kg dose (2 ml/kg b.d.w. volume from the […] solution) 30 min before capsaicin challenge. Codeine is a known cough suppressant.
(§5) Three experimental groups were involved in this study: Vehicle, suplatast tosilate and codeine treated groups. Each group contained n=16 guinea pigs. Altogether, 48 guinea pigs were used for this study.
(§6) On day 0 the naïve animals were treated i.p. either with codeine or suplatast tosilate. 30 min later the cough challenge was applied. 14 days later the animals were anaesthetized by ketamin/xilazine/acepromazine 10/2/0.1 mg/kg at 1 mL/kg i.m. The trachea was prepared and 8 U/kg bodyweight (1 mL/kg volume in sterile saline) bleomycin was injected slowly into the trachea. The wound was closed by sutures. 14 days after bleomycin injection the animals were treated with the test molecules and exposed to capsaicin spray again.
(§7) The capsaicin cough-challenge protocol was applied both on day 0 naïve animals and on day 28 on bleomycin treated animals. The guinea pigs were exposed to 30 μM capsaicin spray 30 min after the test item administration. The 30 μM capsaicin spray was generated by a compressed air nebulizer (DeVilbiss Pulmoaid) connected to a transparent chamber (6.7 l volume). Compressed air with a flow of 0.16 l/s and pressure of 0.5 bar produced the spray. The capsaicin vapour penetrated into the chamber through a short tube driven by constant air flow. The animals were put into a transparent chamber individually and exposed to the capsaicin (30 μM capsaicin was diluted by water from 10^-2 M alcoholic capsaicin stock solution) aerosol for 10 minutes. The number of coughs during the 10 min inhalation period and the subsequent 5 min was counted. The coughing of the animals was defined as a strong contraction of abdomen which was followed by forced expiration through the opened mouth of the animals. Two trained technicians monitored in parallel the exposed animals and counted the cough numbers independently from each-others.
(§8) The cough numbers in each group were expressed as median and inter quartile range on the figures and mean±SD on tables. The percentage antitussive effect was also calculated.

[2] = system: bleomycin-treated guinea pigs (capsaicin inhalation-induced cough); test: 30 uM capsaicin cough challenge on bleomycin-treated animals (pre-clinical model of pulmonary fibrosis); format: in vivo, guinea pig; conditions: for inhibition at 30 mg/kg: Cavia porcellus, ip; for mean cough, 10 min exposure: bleomycin-treated (14 days after 8 U/kg intratracheal), 30 mg/kg i.p. 30 min before 30 uM capsaicin, vehicle 52.9; for mean cough, 10 min exposure / mean cough, 5 min observation / mean cough, 10 + 5 min: n=14-16; for antitussive effect (conclusion in words): bleomycin-treated animals, capsaicin challenge; for mean cough, 5 min observation: 5 min post-exposure period, vehicle 22.4; for mean cough, 10 + 5 min: vehicle 75.3
Method: as §1, §2, §3, §4, §5, §6, §7, §8

[3] = system: patients receiving the drug; conditions: cited from earlier work
[4] = system: guinea pigs (enalapril plus citric acid induced cough); test: Cough induced by enalapril plus citric acid in guinea pigs; format: in vivo, guinea pig; conditions: 30 mg/kg i.p. 30 min before 10% citric acid spray; enalapril 1.3 mg/kg s.c.; whole 8-min observation; mean±S.E.M.; n=6; vehicle 11.2±2.6
Method: as §3, with “The method is described in detail by Zhou et al: Pharmacology. 2015; 95(1-2): 36-41. In brief: Male” for “Male”, “open cages” for “individually ventilated cabinets”
The enalapril maleate was dissolved in sterile saline (Salsol infusion, Teva) at 1.3 mg/mL concentration and was applied subcutaneously at 1.3 mg/kg dose (1 mL/kg b.d.w. volume from the 1.3 mg/mL solution) 30 min before vehicle, suplatast tosilate or administration. […]
The guinea pigs were exposed to 10% citric acid spray 30 min after the test item administration. […] The number of coughs during the 3 min inhalation period and the subsequent 5 min was counted. […] The sound of the cough was monitored by a microphone connected to a loudspeaker placed into the cough chamber. A trained technician monitored the exposed animals and counted the cough numbers.
The average cough numbers in each group was expressed as mean±S.E.M. The percentage antitussive effect was also calculated.

[5] = Solubility in dosing vehicle; format: physicochemical; conditions: 10% PEG400/saline mixture; 30 mg/mL dosing solution
Method: The vehicle for suplatast tosilate was 10% PEG400/saline mixture. Suplatast tosilate was well soluble in this mixture. ST was administered intraperitoneally at 30 mg/kg dose (1 ml/kg b.d.w. volume from the 30 mg/mL solution/suspension) 30 min before citric acid challenge. 6 guinea pigs were included in the vehicle group and in the ST group.
The vehicle for suplatast tosilate (ST) is 10% PEG400/saline mixture. ST is well soluble in this mixture. ST is administered intraperitoneally at 30 mg/kg dose (1 ml/kg b.d.w. volume from the 30 mg/mL solution/suspension) 30 min before citric acid challenge. 6 guinea pigs were included in the vehicle and in the ST groups.

[6] = system: guinea pigs (enalapril plus citric acid induced cough); conditions: Zhou et al 2015; cited from earlier work
[7] = system: guinea-pigs (airway cough hypersensitivity, allergic eosinophilic inflammation); conditions: cited from earlier work
[8] = system: patients with Cough Variant Asthma; conditions: cited from earlier work
[9] = system: Atopic cough; conditions: after four weeks of treatment; cited from earlier work
[10] = system: refractory chronic dry cough following lung cancer surgery; conditions: cited from earlier work
[11] = system: patients with non-atopic asthma or chronic bronchitis; conditions: cited from earlier work
[12] = system: Idiopathic Pulmonary Fibrosis (IPF); conditions: cited from earlier work
[13] = 5 min, read-out: Percentage inhibition (antitussive effect), 5 min observation
[14] = 10 min, read-out: Percentage inhibition (antitussive effect), 10 min exposure
[15] = read-out: Percentage inhibition (antitussive effect), 10 + 5 min
[16] = naive animals, 30 mg/kg i.p., whole 15-min observation
[17] = bleomycin-treated, 30 mg/kg i.p.
[18] = bleomycin-treated, 30 mg/kg i.p., whole 15-min observation

Work on `COc1ccc2c3c1O[C@H]1[C@@H](O)C=C[C@H]4[C@@H](C2)N(C)CC[C@@]341` [Codeine, codeine] yielded an inhibition at 30 mg/kg [1, 13] of 97.4%, an inhibition at 30 mg/kg [1, 14] of 43.9% and an inhibition at 30 mg/kg [1, 15] of 55%. For the same compound, the “mean cough, 10 min exposure” value ([1]; naive animals) was 5.2, the “mean cough, 5 min observation” value ([1]; naive animals, 30 mg/kg i.p.) was 0.1 and the “mean cough, 10 + 5 min” value [1, 16] was 5.3. For the same compound, the “antitussive effect (conclusion in words)” value ([1]; naive animals, 30 mg/kg i.p.) was “showed antitussive effect”, the inhibition at 30 mg/kg [2, 13] was 76.2% and the inhibition at 30 mg/kg [2, 14] was 72.9%. The inhibition at 30 mg/kg [2, 15] was 73.9%, the “mean cough, 10 min exposure” value [2] was 14.3 and the “antitussive effect (conclusion in words)” value ([2]; 30 mg/kg i.p.) was “showed antitussive effect”. The “mean cough, 5 min observation” value [2, 17] was 5.3 and the “mean cough, 10 + 5 min” value [2, 18] was 19.7.
In the case of `CCCCc1oc2ccccc2c1C(=O)c1cc(I)c(OCCN(CC)CC)c(I)c1` [amiodarone], the “patients who get pulmonary fibrosis” value [3] is listed as “up to 40%”.
Compound `CCOCC(O)COc1ccc(NC(=O)CC[S+](C)C)cc1.Cc1ccc(S(=O)(=O)[O-])cc1` (racemic) [Suplatast tosilate, (±)-3-{[4-(3-ethoxy-2-hydroxypropoxy)phenyl]amino}-3-oxopropyl)(dimethyl)sulfonium; 4-methylbenzenesulfonate] has a cough number [4] of 7.2±2.8, an inhibition at 30 mg/kg ([1]; 5 min, naive animals, 30 mg/kg i.p., post-exposure period, versus vehicle, read-out: Percentage inhibition (antitussive effect), 5 min observation) of -51.9% and an inhibition at 30 mg/kg ([1]; 10 min, naive animals, 30 mg/kg i.p., versus vehicle, read-out: Percentage inhibition (antitussive effect), 10 min exposure) of -5.4%. The inhibition at 30 mg/kg ([1]; naive animals, 30 mg/kg i.p., whole 15-min observation, versus vehicle, read-out: Percentage inhibition (antitussive effect), 10 + 5 min) was -15%, the “mean cough, 10 min exposure” value ([1]; naive animals) was 9.8 and the “mean cough, 5 min observation” value ([1]; naive animals, 30 mg/kg i.p.) was 3.7. For the same compound, the “Percentage inhibition (antitussive effect), 5 min observation” value ([1]; naive animals, 30 mg/kg i.p., post-exposure period, versus vehicle, 30 mg/kg) was “did not show antitussive effect”, the “Percentage inhibition (antitussive effect), 10 min exposure” value ([1]; naive animals, 30 mg/kg i.p., versus vehicle, 30 mg/kg) was “did not show antitussive effect” and the “mean cough, 10 + 5 min” value [1, 16] was 13.4. The “antitussive effect (conclusion in words)” value ([1]; naive animals, 30 mg/kg i.p.) was “did not show antitussive effect”, the inhibition at 30 mg/kg ([2]; 5 min, bleomycin-treated, 30 mg/kg i.p., post-exposure period, versus vehicle, read-out: Percentage inhibition (antitussive effect), 5 min observation) was 77.7% and the inhibition at 30 mg/kg ([2]; 10 min, bleomycin-treated, 30 mg/kg i.p., versus vehicle, read-out: Percentage inhibition (antitussive effect), 10 min exposure) was 42.8%. For the same compound, the inhibition at 30 mg/kg ([2]; bleomycin-treated, 30 mg/kg i.p., whole 15-min observation, versus vehicle, read-out: Percentage inhibition (antitussive effect), 10 + 5 min) was 53.2%, the “mean cough, 10 min exposure” value [2] was 30.3 and the “antitussive effect (conclusion in words)” value ([2]; 30 mg/kg i.p.) was “relevant and statistically significant antitussive effect”. For the same compound, the “mean cough, 5 min observation” value [2, 17] was 5, the “mean cough, 10 + 5 min” value [2, 18] was 35.3 and the solubility in vehicle [5] was “well soluble”. The “effect on citric acid+enalapril induced cough” value [6] was “reduce citric acid+enalapril induced cough”, the “acute effect on capsaicin induced cough” value ([7]; acute administration, airway allergy guinea-pig model) was “does not acutely reduce capsaicin induced cough” and the “effect on airway cough hypersensitivity” value ([7]; sub-chronic administration, allergic eosinophilic inflammation, listed as ST) was “reduce airway cough hypersensitivity; also recorded: inhibiting airway cough hypersensitivity”. For the same compound, the “effect on cough in capsaicin challenge” value [8] was “improving cough”, the “effect on cough threshold” value [9] was “decreasing cough threshold” and the “effect on refractory chronic dry cough” value [10] was “benefit refractory chronic dry cough”. The “effect on cough reflex sensitivity” value [11] was “does not change the cough reflex sensitivity”.
For `COC(=O)c1ccc2c(c1)NC(=O)/C2=C(\Nc1ccc(N(C)C(=O)CN2CCN(C)CC2)cc1)c1ccccc1` [Ofev (nintedanib), nintedanib], the “effect on decline of lung function” value [12] is listed as “slow the decline of lung function” and the “effect on mortality and lung function” value [12] is listed as “has not been shown to reduce mortality or improve lung function”.
For `O=C1CN(/N=C/c2ccc([N+](=O)[O-])o2)C(=O)N1` [nitrofurantoin], the “patients who get pulmonary fibrosis” value [3] is given as 0.01%.
